Patent publication US11992560B2, “Electrospun fibers for a local release of an anti-inflammatory drug and a promyelinating drug” (ALMA MATER STUDIORUM—UNIVERSITÀ DI BOLOGNA, priority 2018, dated 2024)

Tested on: LPS stimulated RAW 264.7 cells
Assay: In vitro efficacy: gene expression (qPCR) in LPS stimulated RAW cells treated with conditioned medium
Type: cell-based, murine
Details: conditioned medium 24 h, LPS 500 ng/ml; respect to sc LPS or ibsc
Description: The murine macrophage cell line RAW 264.7 was purchased from the American Type Culture Collection (ATCC® TIB-71™). Cells were grown at 37° C. in DMEM high glucose medium (Thermo Fisher Scientific) supplemented with 10% heat-inactivated fetal bovine serum (FBS—Thermo Fisher Scientific), 1% penicillin/streptomycin (100 U ml-1/100 μg ml-1) (Thermo Fisher Scientific), in a humidified incubator of 5% CO2. When 70-80% confluency was reached, cells were detached mechanically with the scraper and subcultured in 75 cm2 flasks.
In order to evaluate the bioactivity of ibuprofen and T3 released from electrospun PLLA fibres conditioned medium was prepared ad described below. […] Three samples/group were analysed.
At the end of the treatments total RNA isolation was performed with the RNeasy Micro kit (Qiagen) following the manufacturer's instructions. Total RNA was eluted in RNase-free water and concentration estimated through absorbance values at 260, 280 and 320 nm (Nanodrop 2000 spectrophotometer, Thermo Scientific). […] Semi-quantitative real-time PCR was performed using the CFX96 real-time PCR system (Bio-Rad). […] Relative quantification of the target genes expression was calculated using the comparative threshold method 2^(—ΔΔCT). […]

Compound: CC(C)Cc1ccc(C(C)C(=O)O)cc1 (stereo not shown) [SC+IBU, Ibuprofen]
- TNFα mRNA level (in words): comparable
